From patent publication US10227357B2, “Compounds and methods for kinase modulation, and indications therefor” (Plexxikon Inc., priority 2012, dated 2019)

How the values were obtained:
[1] = target: T1, c-kit kinase (Homo sapiens, UniProt P10721); experiment: c-Kit biochemical assay, AlphaScreen, 10 μM ATP; details: c-kit biochemical inhibitory activity; read-out: Biochemical activity (IC50 μM) Kit
T1 construct: The c-kit (or kinase domain thereof) is an active kinase in AlphaScreen; poly-Histidine tag (in-house protein only) (cleaved yes); host or cells: E. coli BL21(DE3)RIL, co-expressed with PTP1B
T1 sequence (P10721 26-976): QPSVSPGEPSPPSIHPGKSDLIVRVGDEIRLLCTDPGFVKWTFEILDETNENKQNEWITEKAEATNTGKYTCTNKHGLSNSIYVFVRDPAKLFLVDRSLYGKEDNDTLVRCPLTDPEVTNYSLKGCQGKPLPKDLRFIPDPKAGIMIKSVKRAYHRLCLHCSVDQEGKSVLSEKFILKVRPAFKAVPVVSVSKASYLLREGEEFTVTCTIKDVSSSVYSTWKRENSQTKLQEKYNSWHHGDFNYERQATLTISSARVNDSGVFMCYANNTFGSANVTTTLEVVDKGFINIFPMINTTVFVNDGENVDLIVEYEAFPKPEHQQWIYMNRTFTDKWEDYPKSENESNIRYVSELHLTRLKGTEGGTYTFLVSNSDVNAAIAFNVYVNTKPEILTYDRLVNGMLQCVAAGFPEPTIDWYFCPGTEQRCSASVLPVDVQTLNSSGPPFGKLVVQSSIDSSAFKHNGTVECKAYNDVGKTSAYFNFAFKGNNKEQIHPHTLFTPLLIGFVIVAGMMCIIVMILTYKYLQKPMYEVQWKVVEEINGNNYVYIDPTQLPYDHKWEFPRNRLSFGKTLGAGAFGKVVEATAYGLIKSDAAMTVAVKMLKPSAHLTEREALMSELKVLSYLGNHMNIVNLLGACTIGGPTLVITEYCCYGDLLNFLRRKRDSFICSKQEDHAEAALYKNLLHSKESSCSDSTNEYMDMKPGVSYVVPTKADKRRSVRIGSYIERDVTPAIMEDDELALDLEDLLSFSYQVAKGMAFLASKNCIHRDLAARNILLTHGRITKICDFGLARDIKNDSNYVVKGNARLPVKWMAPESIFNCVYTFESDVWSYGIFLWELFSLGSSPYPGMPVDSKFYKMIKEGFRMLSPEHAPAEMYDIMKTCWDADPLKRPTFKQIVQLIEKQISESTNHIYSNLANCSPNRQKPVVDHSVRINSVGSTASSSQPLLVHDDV
Outline: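 His-tagged c-Kit expressed in E. coli with co-expressed PTP1B (dephosphorylated), tag removed; 0.1 ng per reaction with biotinylated-peptide substrate in 50 mM HEPES pH 7.2, 5 mM MgCl2, 5 mM MnCl2, 5% DMSO, 10 μM ATP, 1 h at room temperature. Phosphorylation detected by AlphaScreen (streptavidin donor, PY20 acceptor beads); IC50 from 8-point 1:3 dilution series.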

[2] = target: T2, c-kit mutant D816V (Homo sapiens, UniProt P10721, D816V/DEL694-753); experiment: c-Kit mutant D816V biochemical assay, AlphaScreen; details: c-kit D816V biochemical inhibitory activity; read-out: Biochemical activity (IC50 μM) Kit D816V
T2 construct: residues 551-934, kinase insertion domain residues 694-753 deleted; 6x-histidine (N); made in house; host or cells: E. coli Arctic Express (DE3) RIL (Stratagene)
T2 sequence (P10721 with tags, fused parts or gaps DEL694-753/D816V): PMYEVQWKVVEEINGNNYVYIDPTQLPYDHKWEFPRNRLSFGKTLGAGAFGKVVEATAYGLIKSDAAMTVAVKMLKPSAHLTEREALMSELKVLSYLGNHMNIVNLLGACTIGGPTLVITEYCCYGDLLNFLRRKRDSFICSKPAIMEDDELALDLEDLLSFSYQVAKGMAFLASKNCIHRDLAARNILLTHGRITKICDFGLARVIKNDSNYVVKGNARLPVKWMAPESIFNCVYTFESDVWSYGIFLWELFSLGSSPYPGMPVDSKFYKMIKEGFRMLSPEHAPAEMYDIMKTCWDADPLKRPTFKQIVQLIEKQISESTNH
Outline: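 Purified His-tagged c-Kit D816V (E. coli-expressed) assayed in 25 mM HEPES pH 7.2 with Mg/Mn, 5% DMSO and 10 μM ATP, 30 min at room temperature, 8-point 1:3 dilutions. Phosphorylation detected by AlphaScreen with streptavidin donor and PY20 acceptor beads; IC50 from signal versus concentration.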

Row | Structure (SMILES) | IC50 [1] | IC50 [2]
1 | Cc1cc2c(-c3ccc(NS(=O)(=O)c4ccc(Br)cc4)cc3)ncnc2[nH]1 [P-0318, 4-bromo-N-[4-(6-methyl-7H-pyrrolo[2,3-d]pyrimidin-4-yl)phenyl]benzenesulfonamide] | 1 to 10 µM | 1 to 10 µM
2 | CNS(=O)(=O)c1cccc(-c2ncnc3[nH]c(C)cc23)c1 [P-0319, N-methyl-3-(6-methyl-7H-pyrrolo[2,3-d]pyrimidin-4-yl)benzenesulfonamide] | 10 to 200 µM | 10 to 200 µM
3 | Cc1cc2c(-c3cccc(NS(C)(=O)=O)c3)ncnc2[nH]1 [P-0320, N-[3-(6-methyl-7H-pyrrolo[2,3-d]pyrimidin-4-yl)phenyl]methanesulfonamide] | 10 to 200 µM | 10 to 200 µM
4 | O=S(=O)(Nc1ccc(-c2ncnc3[nH]c(C4=CCCC4)cc23)c(F)c1)c1ccc(F)cc1 [P-0321, N-[4-[6-(cyclopenten-1-yl)-7H-pyrrolo[2,3-d]pyrimidin-4-yl]-3-fluoro-phenyl]-4-fluoro-benzenesulfonamide] | 0.0001 to 1 µM | 0.0001 to 1 µM
5 | Cc1cc2c(-c3ccc(NS(=O)(=O)c4cnn(C(F)F)c4)cc3)ncnc2[nH]1 [P-0322, 1-(difluoromethyl)-N-[4-(6-methyl-7H-pyrrolo[2,3-d]pyrimidin-4-yl)phenyl]pyrazole-4-sulfonamide] | 10 to 200 µM | 1 to 10 µM
6 | Cc1cc2c(-c3ccc(NS(=O)(=O)c4ccc(Cl)s4)cc3)ncnc2[nH]1 [P-0323, 5-chloro-N-[4-(6-methyl-7H-pyrrolo[2,3-d]pyrimidin-4-yl)phenyl]thiophene-2-sulfonamide] | 1 to 10 µM | 1 to 10 µM
7 | COc1ccc(S(=O)(=O)Nc2ccc(-c3ncnc4[nH]c(C)cc34)cc2)cn1 [P-0324, 6-methoxy-N-[4-(6-methyl-7H-pyrrolo[2,3-d]pyrimidin-4-yl)phenyl]pyridine-3-sulfonamide] | 1 to 10 µM | 1 to 10 µM
8 | COc1ccc(S(=O)(=O)Nc2ccc(-c3ncnc4[nH]c(C)cc34)cc2)cc1F [P-0325, 3-fluoro-4-methoxy-N-[4-(6-methyl-7H-pyrrolo[2,3-d]pyrimidin-4-yl)phenyl]benzenesulfonamide] | 10 to 200 µM | 1 to 10 µM
9 | COc1ccc(S(=O)(=O)Nc2ccc(-c3ncnc4[nH]c(C)cc34)cc2)cc1 [P-0326, 4-methoxy-N-[4-(6-methyl-7H-pyrrolo[2,3-d]pyrimidin-4-yl)phenyl]benzenesulfonamide] | 1 to 10 µM | 1 to 10 µM
10 | O=S(=O)(Nc1ccc(Cl)cc1)c1ccc(-c2ncnc3[nH]c(-c4ccc(F)cc4)cc23)c(F)c1 [P-0327, N-(4-chlorophenyl)-3-fluoro-4-[6-(4-fluorophenyl)-7H-pyrrolo[2,3-d]pyrimidin-4-yl]benzenesulfonamide] | 10 to 200 µM | 0.0001 to 1 µM
11 | O=S(=O)(Nc1ccc(F)cc1)c1ccc(-c2ncnc3[nH]c(-c4ccc(F)cc4)cc23)c(F)c1 [P-0328, 3-fluoro-N-(4-fluorophenyl)-4-[6-(4-fluorophenyl)-7H-pyrrolo[2,3-d]pyrimidin-4-yl]benzenesulfonamide] | 10 to 200 µM | 0.0001 to 1 µM
12 | Cc1cc2c(-c3ccc(NS(=O)(=O)c4ccc(OC(F)F)cc4)cc3)ncnc2[nH]1 [P-0329, 4-(difluoromethoxy)-N-[4-(6-methyl-7H-pyrrolo[2,3-d]pyrimidin-4-yl)phenyl]benzenesulfonamide] | 10 to 200 µM | 10 to 200 µM
13 | Cc1cc2c(-c3ccc(NS(=O)(=O)c4ccc(Cl)cc4)cc3)ncnc2[nH]1 [P-0330, 4-chloro-N-[4-(6-methyl-7H-pyrrolo[2,3-d]pyrimidin-4-yl)phenyl]benzenesulfonamide] | 1 to 10 µM | 1 to 10 µM
14 | Cc1cc2c(-c3ccc(NS(=O)(=O)c4ccc(F)cc4)cc3)ncnc2[nH]1 [P-0331, 4-fluoro-N-[4-(6-methyl-7H-pyrrolo[2,3-d]pyrimidin-4-yl)phenyl]benzenesulfonamide] | 1 to 10 µM | 1 to 10 µM
15 | CS(=O)(=O)Nc1ccc(-c2ncnc3[nH]c(-c4ccc(F)cc4F)cc23)c(F)c1 [P-0333, N-[4-[6-(2,4-difluorophenyl)-7H-pyrrolo[2,3-d]pyrimidin-4-yl]-3-fluoro-phenyl]methanesulfonamide] | 0.0001 to 1 µM | 0.0001 to 1 µM
16 | Cc1cc2c(-c3ccc(NS(=O)(=O)c4cc(F)ccc4F)cc3F)ncnc2[nH]1 [P-0335, 2,5-difluoro-N-[3-fluoro-4-(6-methyl-7H-pyrrolo[2,3-d]pyrimidin-4-yl)phenyl]benzenesulfonamide] | 1 to 10 µM | 1 to 10 µM

Row | Structure (SMILES) | IC50 [1] | IC50 [2]
17 | Cc1cc2c(-c3ccc(S(=O)(=O)Nc4ccc(F)cc4)cc3F)ncnc2[nH]1 [P-0336, 3-fluoro-N-(4-fluorophenyl)-4-(6-methyl-7H-pyrrolo[2,3-d]pyrimidin-4-yl)benzenesulfonamide] | 10 to 200 µM | 1 to 10 µM
18 | O=S(=O)(Nc1ccc(-c2ncnc3[nH]c(-c4cc(F)ccc4F)cc23)c(F)c1)c1ccc(Cl)cc1 [P-0337, 4-chloro-N-[4-[6-(2,5-difluorophenyl)-7H-pyrrolo[2,3-d]pyrimidin-4-yl]-3-fluoro-phenyl]benzenesulfonamide] | 10 to 200 µM | 0.0001 to 1 µM
19 | O=S(=O)(Nc1ccc(-c2ncnc3[nH]c(-c4cc(F)ccc4F)cc23)c(F)c1)C1CC1 [P-0338, N-[4-[6-(2,5-difluorophenyl)-7H-pyrrolo[2,3-d]pyrimidin-4-yl]-3-fluoro-phenyl]cyclopropanesulfonamide] | 10 to 200 µM | 1 to 10 µM
20 | CS(=O)(=O)Nc1ccc(-c2ncnc3[nH]c(-c4cc(F)ccc4F)cc23)c(F)c1 [P-0339, N-[4-[6-(2,5-difluorophenyl)-7H-pyrrolo[2,3-d]pyrimidin-4-yl]-3-fluoro-phenyl]methanesulfonamide] | 1 to 10 µM | 0.0001 to 1 µM
21 | O=S(=O)(Nc1ccc(-c2ncnc3[nH]c(-c4ccc(F)cc4F)cc23)c(F)c1)C1CC1 [P-0340, N-[4-[6-(2,4-difluorophenyl)-7H-pyrrolo[2,3-d]pyrimidin-4-yl]-3-fluoro-phenyl]cyclopropanesulfonamide] | 10 to 200 µM | 0.0001 to 1 µM
22 | Cc1cc2c(-c3ccc(NS(=O)(=O)c4cc(F)cc(F)c4)cc3F)ncnc2[nH]1 [P-0342, 3,5-difluoro-N-[3-fluoro-4-(6-methyl-7H-pyrrolo[2,3-d]pyrimidin-4-yl)phenyl]benzenesulfonamide] | 10 to 200 µM | 10 to 200 µM
23 | Cc1cc2c(-c3ccc(S(=O)(=O)Nc4ccc(F)cc4)c(F)c3)ncnc2[nH]1 [P-0343, 2-fluoro-N-(4-fluorophenyl)-4-(6-methyl-7H-pyrrolo[2,3-d]pyrimidin-4-yl)benzenesulfonamide] | 10 to 200 µM | 1 to 10 µM
24 | Cc1cc2c(-c3ccc(NS(=O)(=O)c4ccc(Cl)cc4)c(F)c3)ncnc2[nH]1 [P-0344, 4-chloro-N-[2-fluoro-4-(6-methyl-7H-pyrrolo[2,3-d]pyrimidin-4-yl)phenyl]benzenesulfonamide] | 1 to 10 µM | 1 to 10 µM
25 | Cc1cc2c(-c3ccc(NS(=O)(=O)c4cccc(Cl)c4)c(F)c3)ncnc2[nH]1 [P-0345, 3-chloro-N-[2-fluoro-4-(6-methyl-7H-pyrrolo[2,3-d]pyrimidin-4-yl)phenyl]benzenesulfonamide] | 1 to 10 µM | 1 to 10 µM
26 | Cc1cc2c(-c3ccc(NS(=O)(=O)c4ccc(F)cc4)c(F)c3)ncnc2[nH]1 [P-0346, 4-fluoro-N-[2-fluoro-4-(6-methyl-7H-pyrrolo[2,3-d]pyrimidin-4-yl)phenyl]benzenesulfonamide] | 1 to 10 µM | 1 to 10 µM
27 | Cc1cc2c(-c3ccc(NS(=O)(=O)c4cccc(F)c4)c(F)c3)ncnc2[nH]1 [P-0347, 3-fluoro-N-[2-fluoro-4-(6-methyl-7H-pyrrolo[2,3-d]pyrimidin-4-yl)phenyl]benzenesulfonamide] | 1 to 10 µM | 1 to 10 µM
28 | Cc1cc2c(-c3ccc(NS(=O)(=O)c4ccc(Cl)cc4)cc3F)ncnc2[nH]1 [P-0349, 4-chloro-N-[3-fluoro-4-(6-methyl-7H-pyrrolo[2,3-d]pyrimidin-4-yl)phenyl]benzenesulfonamide] | 1 to 10 µM | 1 to 10 µM
29 | Cc1cc2c(-c3ccc(NS(=O)(=O)c4ccc(C)c(F)c4)c(F)c3)ncnc2[nH]1 [P-0350, 3-fluoro-N-[2-fluoro-4-(6-methyl-7H-pyrrolo[2,3-d]pyrimidin-4-yl)phenyl]-4-methyl-benzenesulfonamide] | 1 to 10 µM | 1 to 10 µM
30 | Cc1cc2c(-c3ccc(NS(=O)(=O)c4cccc(Cl)c4F)c(F)c3)ncnc2[nH]1 [P-0351, 3-chloro-2-fluoro-N-[2-fluoro-4-(6-methyl-7H-pyrrolo[2,3-d]pyrimidin-4-yl)phenyl]benzenesulfonamide] | 1 to 10 µM | 10 to 200 µM
31 | Cc1cc2c(-c3ccc(NS(=O)(=O)c4ccc(Cl)cc4F)cc3F)ncnc2[nH]1 [P-0352, 4-chloro-2-fluoro-N-[3-fluoro-4-(6-methyl-7H-pyrrolo[2,3-d]pyrimidin-4-yl)phenyl]benzenesulfonamide] | 0.0001 to 1 µM | 1 to 10 µM
32 | CS(=O)(=O)Nc1ccc(-c2ncnc3[nH]c(-c4ccc(F)cc4)cc23)c(F)c1F [P-0353, N-[2,3-difluoro-4-[6-(4-fluorophenyl)-7H-pyrrolo[2,3-d]pyrimidin-4-yl]phenyl]methanesulfonamide] | 1 to 10 µM | 0.0001 to 1 µM
